Test system: KRAS PDC multicell spheroid viability
Experiment: Anticancer human tumor 825966-067-R-J1-PDC patient-derived colon carcinoma cell line growth inhibition [KRAS2]
Settings: for IC50: curve of first compound; for viability, T/C: stronger effect = lower value
Text: Multicellular complex tumor spheroid response to RAS pathway inhibitors in combination with a targeted agents in patient-derived cell lines with oncogenic KRAS variants from multiple cancer types
A high-throughput screen of multi-cell type tumor spheroids was designed to identify active combinations of targeted small molecules and KRAS pathway inhibitors. Complex spheroids include a stromal component modeled by human endothelial cells (HUVEC) and fibroblasts modeled by human mesenchymal stem cells (MSCs). The concentration ranges selected for each drug and investigational agent were based upon clinically achievable concentrations if the clinical Cmax of the agent was known.
Compounds. The drugs and investigational agents: BI-3406 (NSC825286), BAY-293 (NSC824723), batoprotafib (TNO155; NSC825523), sotorasib (AMG 510; NSC818433), MRTX1257 (NSC819558), elimusertib (BAY 1895344; NSC800525), molibresib (GSK525762; NSC774829), temuterkib (LY3214996; NSC803410), venetoclax (NSC766270), alisertib (NSC759677), olaparib (NSC753686), talazoparib (NSC767125), erdafitinib (NSC781556), ipatasertib (NSC767898), cabozantinib (NSC761068), nintedanib (NSC756659), abemaciclib (NSC768073), docetaxel (NSC628503), trametinib (NSC758246), and sapanisertib (NSC764658) were obtained from the National Cancer Institute (NCI) Developmental Therapeutics Program Chemical Repository. The FDA-approved anticancer drug set is available from the Developmental Therapeutics Program. […] The stock solutions were prepared in dimethyl sulfoxide (DMSO, Sigma-Aldrich, St. Louis, MO, cat. D2650) at 800-fold the tested concentration and stored at -70 degrees C prior to their use. All drugs and investigational agents were tested over a range starting from a high concentration at or near the clinical Cmax and decreasing in half-log increments. If the clinical Cmax for an agent had not been determined, the highest concentration tested was 10 microM.
Cell Culture. All cells were maintained in an incubator at 37 degrees C and 5% CO2 with 95% humidity. The PDC lines were cultured according to standard operating procedures established by the NCI PDMR (https://pdmr.cancer.gov/sops/default.htm). Briefly, all PDCs were thawed and cultured in Matrigel-coated flasks prepared with a working solution of 1X Ham's F-12 nutrient mix, without supplementation (Invitrogen, Waltham, MA, cat. 11765054), 100 U/mL penicillin-streptomycin (Invitrogen, cat. 15140122), and 2.5% Matrigel (Corning Inc., Corning, NY, cat. 354248) for the first three passages. All PDCs were cultured in complete DMEM/F-12 media containing advanced DMEM/F-12 (Invitrogen, cat. 12634028), 4.9% defined fetal bovine serum, heat inactivated (HyClone Laboratories Inc., Logan, UT, cat. SH30070.03HI), 389 ng/mL hydrocortisone (Sigma-Aldrich, cat. H4001), 9.7 ng/mL human EGF recombinant protein (Invitrogen, cat. PHG0313), 23.4 microg/mL adenine (Sigma-Aldrich, cat. A2786), 97.3 U/mL penicillin-streptomycin (Invitrogen, cat. 15140122), 1.9 mM L-glutamine (Invitrogen, cat. 25030081), and 9.7 microM Y-27632 dihydrochloride (Tocris Bioscience, Bristol, United Kingdom, cat. 1254). The PDCs were cultured in complete DMEM/F12 media without 9.7 microM Y-27632 dihydrochloride for at least two passages prior to the screen. The established cell line HOP-62 was cultured in RPMI 1640 medium, HEPES (Invitrogen, cat. 22400105) with 10% defined fetal bovine serum (HyClone Laboratories Inc., cat. SH30070.03) and 2 mM L-glutamine (Invitrogen, cat. 25030081). The pooled donor HUVEC were cultured in endothelial cell growth medium 2 (PromoCell, Heidelberg, Germany, cat. C-22011) and the hMSC were cultured in mesenchymal stem cell growth medium 2 (PromoCell, cat. C-28009). For all experiments, HUVEC and hMSC were used at passages </=5, while the malignant cell lines were used at passages </=15. […]

[1] = second compound 0.1 µM, first compound 0.0316 µM
[2] = second compound 0.1 µM, first compound 0.1 µM
[3] = second compound 0.1 µM, first compound 0.316 µM
[4] = second compound 0.1 µM, first compound 1 µM
[5] = second compound 0.1 µM, first compound 3.16 µM
[6] = second compound 0.1 µM, first compound 10 µM
[7] = second compound 0.316 µM, first compound 0.0316 µM
[8] = second compound 0.316 µM, first compound 0.1 µM
[9] = second compound 0.316 µM, first compound 0.316 µM
[10] = second compound 0.316 µM, first compound 1 µM
[11] = second compound 0.316 µM, first compound 3.16 µM
[12] = second compound 0.316 µM, first compound 10 µM
[13] = second compound 1 µM, first compound 0.0316 µM
[14] = second compound 1 µM, first compound 0.1 µM
[15] = second compound 1 µM, first compound 0.316 µM
[16] = second compound 1 µM, first compound 1 µM
[17] = second compound 1 µM, first compound 3.16 µM
[18] = second compound 1 µM, first compound 10 µM
[19] = second compound 3.16 µM, first compound 0.0316 µM
[20] = second compound 3.16 µM, first compound 0.1 µM
[21] = second compound 3.16 µM, first compound 0.316 µM
[22] = second compound 3.16 µM, first compound 1 µM
[23] = second compound 3.16 µM, first compound 3.16 µM
[24] = second compound 3.16 µM, first compound 10 µM
[25] = second compound 10 µM, first compound 0.0316 µM
[26] = second compound 10 µM, first compound 0.1 µM
[27] = second compound 10 µM, first compound 0.316 µM
[28] = second compound 10 µM, first compound 1 µM
[29] = second compound 10 µM, first compound 3.16 µM
[30] = second compound 10 µM, first compound 10 µM
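Also: spheroids exposed to compounds for 7 days.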
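For viability, T/C in this document: 100% = DMSO vehicle control viability.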

Row | Structure (SMILES) | IC50 (second compound 0.1 µM) | IC50 (second compound 0.316 µM) | IC50 (second compound 1 µM) | IC50 (second compound 3.16 µM) | IC50 (second compound 10 µM) | viability, T/C [1] | viability, T/C [2] | viability, T/C [3] | viability, T/C [4] | viability, T/C [5] | viability, T/C [6] | viability, T/C [7] | viability, T/C [8] | viability, T/C [9] | viability, T/C [10] | viability, T/C [11] | viability, T/C [12] | viability, T/C [13] | viability, T/C [14] | viability, T/C [15] | also measured
1 | COc1cc(Nc2ncc3c(n2)-c2ccc(Cl)cc2C(c2c(F)cccc2OC)=NC3)ccc1C(=O)O + C=CC(=O)N1CCN(c2nc(=O)n(-c3c(C)ccnc3C(C)C)c3nc(-c4c(O)cccc4F)c(F)cc23)C(C)C1 | > 10000 nM | > 10000 nM | > 10000 nM | > 10000 nM | > 10000 nM | 144% | 117% | 141% | 140% | 138% | 133% | 116% | 107% | 135% | 140% | 154% | 134% | 88.9% | 107% | 96% | viability, T/C [16]: 127%; viability, T/C [17]: 123%; viability, T/C [18]: 118%; viability, T/C [19]: 104%; viability, T/C [20]: 93.5%; viability, T/C [21]: 142%; viability, T/C [22]: 118%; viability, T/C [23]: 144%; viability, T/C [24]: 103%; viability, T/C [25]: 83.3%; viability, T/C [26]: 66%; viability, T/C [27]: 97.7%; viability, T/C [28]: 79.5%; viability, T/C [29]: 116%; viability, T/C [30]: 90.5%
2 | COc1cc2nccc(Oc3ccc(NC(=O)C4(C(=O)Nc5ccc(F)cc5)CC4)cc3)c2cc1OC + C=CC(=O)N1CCN(c2nc(=O)n(-c3c(C)ccnc3C(C)C)c3nc(-c4c(O)cccc4F)c(F)cc23)C(C)C1 | 1730 nM | 1590 nM | 1690 nM | 1520 nM | 461 nM | 108% | 111% | 81.8% | 88.8% | 6.77% | 8.36% | 91.1% | 122% | 71.7% | 78.3% | 6.54% | 10.2% | 111% | 118% | 85.8% | viability, T/C [16]: 87.5%; viability, T/C [17]: 2.49%; viability, T/C [18]: 8.75%; viability, T/C [19]: 88.4%; viability, T/C [20]: 77%; viability, T/C [21]: 90%; viability, T/C [22]: 76.1%; viability, T/C [23]: 2.99%; viability, T/C [24]: 6.07%; viability, T/C [25]: 97.4%; viability, T/C [26]: 78.5%; viability, T/C [27]: 56.1%; viability, T/C [28]: 41.7%; viability, T/C [29]: 2%; viability, T/C [30]: 2.5%

From PubChem BioAssay AID1963865 (Molecular Pharmacology Branch, DTP, NCI, 2024)
